Values after ≈ are worked out from the molar mass of the structure shown.
Test: Cytotoxicity against human NSCLC-N6 cells by colorimetric assay
Assay type: functional, cell-based

SMILES	IC50
O=C(c1nc(-c2c[nH]c3ccccc23)c[nH]1)c1c[nH]c2cc(O)ccc12 [TOPSENTIN]	12 µg/mL (≈ 35.1 µM)
O=C(c1nc(-c2c[nH]c3cc(Br)ccc23)c[nH]1)c1c[nH]c2cc(O)ccc12 [BROMOTOPSENTIN]	6.3 µg/mL (≈ 15 µM)
